Earlier results on 4 compounds are cited in paper PMC6277767, “Broad and Region-Specific Impacts of the Synthetic Cannabinoid CP 55,940 in Adolescent and Adult Female Mouse Brains” (Frontiers in Molecular Neuroscience, 2018).

For one series, the system named is BV-2 microglial cells. Further details: method as in Rimmerman et al., 2012. The settings on record: ref Rimmerman et al., 2012; cited from earlier work.
Series [1] has as its system human peripheral blood mononuclear cells. Further details: method as in Bileck et al., 2016. The settings on record: 10 μM for 3 h; ref Bileck et al., 2016; cited from earlier work.
The subject of the next series is DAGLα. Also on record: method as in Ogasawara et al., 2016. The settings on record: reductions measured at 2 h and 4 h post-injection; ref Ogasawara et al., 2016; cited from earlier work.
In another series the test system is CB2. Also on record: method as in Felder et al., 1995. To be noted: ref Felder et al., 1995; read-out: IC50, inhibition of adenylate cyclase at CB2; cited from earlier work.
Series [2] deals with CB1. Further details: method as in Felder et al., 1995. The settings on record: ref Felder et al., 1995; read-out: IC50, inhibition of adenylate cyclase at CB1; cited from earlier work.
On the set-up of series [3]: method as in Leishman et al., 2018. To be noted: acute exposure, all age groups; ref Leishman et al., 2018; cited from earlier work.
The subject of series [4] is CB1. To be noted: ref Brents et al., 2011; read-out: EC50, stimulated G-protein binding at CB1; cited from earlier work.

Each structure is given as a SMILES string. A value given as a limit tells only on which side of the number the result lay.

Regarding `C=C(C)[C@@H]1CCC(C)=C[C@H]1c1c(O)cc(CCCCC)cc1O` [CBD, cannabidiol], the “levels of AEA” value with BV-2 microglial cells is listed as “increased”.

As to `CCCCCCCC(C)(C)c1ccc([C@H]2CCC[C@@H](O)C2)c(O)c1` [CP 47,497-C8], in series [1], the “expression of 5-LOX compared to vehicle” value is given as 26 fold and the “expression of fatty acid synthase” value was “over twofold”.

In the case of `C#CCO[C@@H]1CC[C@H](Cc2ccccc2)N(C(=O)n2ncc(C(O)(c3ccc(F)cc3)c3ccc(F)cc3)n2)C1` [DH376], the “time for reduced 2-AG, AA and AEA levels to return to baseline” value in the series with DAGLα is listed as at most 8 h.

Turning to `CCCCCc1cc(O)c2c(c1)OC(C)(C)[C@@H]1CCC(C)=C[C@@H]21` [THC, Δ^9-tetrahydrocannabinol], the IC50 (usually the point on the concentration scale where inhibition reaches its midpoint) with CB2 is 41.8 nM; with CB1 [2], […]. Moreover, the “brain area with highest THC levels” value in series [3] is “HIPP”. The half-maximal effective concentration (EC50) – broadly, the concentration giving half of the maximal effect – in the series with CB1 [4] was […].
